Results: US20110071158A1, “NEW COMPOUNDS” (BOEHRINGER INGELHEIM INTERNATIONAL GMBH, priority 2009, published 2011)
pIC50: −log10 of the molar value.

Molecular target: T1, PTK2 enzyme (Homo sapiens, UniProt Q05397)
T1 construct: purchased Invitrogen PV3832
Assay: PTK2 enzyme test, Assay 1 (DELFIA, poly-Glu-Tyr substrate, antibody PT60)
Assay type: biochemical
Conditions: Assay 1 (values without *); 1 h pre-incubation, 2% DMSO
Description: This test uses active PTK2 enzyme (Invitrogen Code PV3832) and poly-Glu-Tyr (4:1, Sigma P-0275) as the kinase substrate. The kinase activity is detected through the phosphorylation of the substrate in a DELFIA™ assay. The phosphorylated substrate is detected with the europium-labelled phosphotyrosine antibody PT60 (Perkin Elmer, No.: AD00400).
In order to determine concentration-activity curves with PTK2-inhibitors the compounds are serially diluted in 10% DMSO/H2O and 10 μL of each dilution are placed in each well of a 96-well microtitre plate (clear plate with a U-shaped base, Greiner No. 650101) (the inhibitors are tested in duplicates) and mixed with 10 μL/well of PTK2 kinase (0.01 μg/well). PTK2 kinase has been correspondingly diluted beforehand with kinase dilution buffer (20 mM TRIS/HCl pH 7.5, 0.1 mM EDTA, 0.1 mM EGTA, 0.286 mM sodium orthovanadate, 10% glycerol with the addition of freshly prepared BSA (fraction V, 1 mg/mL) and DTT (1 mM)). The test compound and the PTK2 kinase are pre-incubated for 1 h at RT and shaken at 500 revolutions per min. The reaction is started by the addition of 10 μL/well poly (Glu,Tyr) substrate (25 μg/well poly (Glu, Tyr), 0.05 μg/well biotinylated poly (Glu,Tyr) dissolved in 250 mM TRIS/HCl pH 7.5, 9 mM DTT)—the final concentration of DMSO is 2%. Then 20 μL of ATP Mix (30 mM TRIS/HCl pH 7.5, 0.02% Brij, 0.2 mM sodium orthovanadate, 10 mM magnesium acetate, 0.1 mM EGTA, 1× phosphatase inhibitor cocktail 1 (Sigma, No.: P2850), 50 μM ATP (Sigma, No.: A3377; 15 mM stock solution)) are added. After 1 h of kinase reaction (the plates are shaken at 500 rpm), the reaction is stopped by the addition of 12 μL/well 100 mM EDTA, pH 8.0 and shaken for a further 5 min at RT (500 rpm). 55 μL of the reaction mixture are transferred into a streptavidin plate (Strepta Well High Bind (transparent, 96-well) made by Roche, No.: 11989685001) and incubated for 1 h at RT (shaking at 500 rpm). Then the microtitre plate is washed three times with 200 μL/well D-PBS (Invitrogen, No. 14190). 100 μL of a solution containing DELFIA Eu-N1 Anti-Phosphotyrosine PT60 antibody (Perkin Elmer, No.: AD0040, diluted 1:2000 in DELFIA test buffer (Perkin Elmer, No.: 1244-111)) is then added and the mixture is incubated for 1 h at RT (shaking at 500 rpm). Then the plate is washed three times with 200 μL/well DELFIA washing buffer (Perkin Elmer, No.: 1244-114), 200 μL/well strengthening solution (Perkin Elmer, No.: 1244-105) are added and the mixture is incubated for 10 min at RT (shaking at 300 rpm).
The time-delayed europium fluorescence is then measured in a microtitre plate reader (VICTOR^3, Perkin Elmer). […] Wells that contain test buffer instead of enzyme are used as a control of the background kinase activity.
The IC50 values are determined from analyses of the concentration activity by iterative calculation with the aid of a sigmoid curve analysis algorithm (FIFTY, based on Graph PAD Prism Version 3.03) with a variable Hill coefficient.

T1 sequence (Q05397 whole entry): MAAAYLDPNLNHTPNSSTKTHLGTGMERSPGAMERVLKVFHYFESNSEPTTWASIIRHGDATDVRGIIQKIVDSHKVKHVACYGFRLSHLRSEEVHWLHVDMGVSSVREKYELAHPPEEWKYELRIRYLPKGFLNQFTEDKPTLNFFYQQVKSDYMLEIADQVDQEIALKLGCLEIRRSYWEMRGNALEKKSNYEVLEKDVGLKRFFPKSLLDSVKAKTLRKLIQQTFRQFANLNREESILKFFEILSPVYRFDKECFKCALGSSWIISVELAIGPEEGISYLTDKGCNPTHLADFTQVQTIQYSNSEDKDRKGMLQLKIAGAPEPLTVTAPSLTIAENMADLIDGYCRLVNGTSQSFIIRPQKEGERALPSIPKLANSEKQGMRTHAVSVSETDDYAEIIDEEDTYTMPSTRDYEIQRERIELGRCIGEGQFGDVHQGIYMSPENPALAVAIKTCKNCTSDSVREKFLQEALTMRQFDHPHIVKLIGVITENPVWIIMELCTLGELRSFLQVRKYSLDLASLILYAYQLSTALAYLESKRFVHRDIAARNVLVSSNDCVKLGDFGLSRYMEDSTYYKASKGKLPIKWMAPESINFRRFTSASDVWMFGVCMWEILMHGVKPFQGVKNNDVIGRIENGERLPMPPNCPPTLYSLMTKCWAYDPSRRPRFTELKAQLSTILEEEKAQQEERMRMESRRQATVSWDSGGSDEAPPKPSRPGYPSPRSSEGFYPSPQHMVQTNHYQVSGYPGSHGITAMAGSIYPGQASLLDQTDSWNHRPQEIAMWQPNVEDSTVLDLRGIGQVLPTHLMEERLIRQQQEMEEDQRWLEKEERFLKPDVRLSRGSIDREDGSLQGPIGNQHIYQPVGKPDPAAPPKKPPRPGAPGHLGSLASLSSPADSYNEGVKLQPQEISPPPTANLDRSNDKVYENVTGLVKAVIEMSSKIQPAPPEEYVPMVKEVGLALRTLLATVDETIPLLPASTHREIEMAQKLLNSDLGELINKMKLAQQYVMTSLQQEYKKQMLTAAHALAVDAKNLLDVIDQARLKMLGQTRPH

Row | Structure (SMILES) | pIC50
1 | COc1cc(N2CCN(C(C)(C)C)CC2)ccc1Nc1ncc(Cl)c(N[C@@H]2CCCC[C@H]2N(C)S(C)(=O)=O)n1 [Example I-183] | 8.40
2 | COCC(=O)N[C@@H]1CCCC[C@H]1Nc1nc(Nc2ccc(N3CCN(C)CC3)cc2OC)ncc1C(F)(F)F [Example I-31] | 8.30
3 | COc1cc(C(=O)NC2CCOCC2)ccc1Nc1ncc(C(F)(F)F)c(N[C@H]2CCCC[C@@H]2NC(C)=O)n1 [Example I-36] | 6.40
4 | COc1cc(C(=O)O)ccc1Nc1ncc(C(F)(F)F)c(N[C@@H]2CCCC[C@H]2NC(C)=O)n1 [Example I-89] | 8.05
5 | COc1cc(C(=O)NC2CCN(C)CC2)c(F)cc1Nc1ncc(C(F)(F)F)c(N[C@@H]2CCCC[C@H]2NCC(=O)N(C)OC)n1 [Example I-27] | 8.22
6 | COc1cc(C(=O)NC2CCN(C)CC2)ccc1Nc1ncc(C(F)(F)F)c(N[C@@H]2CCCC[C@@H]2NC(C)=O)n1 [Example I-5] | 7.72
7 | COc1cc(C(=O)NC2CCN(C)CC2)ccc1Nc1ncc(C(F)(F)F)c(N[C@@H]2CCCC[C@H]2N(C)C(=O)C2CC2)n1 [Example I-83] | 8.40
8 | CCN1CCC(NC(=O)c2ccc(Nc3ncc(C(F)(F)F)c(N[C@H]4CCCC[C@@H]4NC(C)=O)n3)c(OC)c2)CC1 [Example I-38] | 6.40
9 | CCN1CCC(NC(=O)c2cc(OC)c(Nc3ncc(Cl)c(N[C@@H]4CCCC[C@H]4N(C)S(C)(=O)=O)n3)cc2F)CC1 [Example I-169] | 8.40
10 | COc1ccc(Nc2ncc(C(F)(F)F)c(N[C@@H]3CCCC[C@H]3NC(=O)CC(C)C)n2)c(OC)c1 [Example I-70] | 6.36
11 | COc1ccccc1Nc1ncc(Cl)c(N[C@@H]2CCCC[C@H]2NC(C)=O)n1 [Example I-4, N-{(1R,2R)-2-[5-chloro-2-(2-methoxy-phenylamino)-pyrimidin-4-ylamino]-cyclohexyl}-acetamide] | 8.05
12 | COc1cc(C(=O)NC2CCCN(C)C2)ccc1Nc1ncc(C(F)(F)F)c(N[C@@H]2CCCC[C@H]2NC(C)=O)n1 (stereo partly drawn) [Example I-10] | 8.52
13 | COc1cc(N2CCN(C)CC2)ccc1Nc1ncc(C(F)(F)F)c(N[C@@H]2CCCC[C@H]2NC(=O)C(C)C)n1 [Example I-30] | 8.30
14 | COCCN1CCC(NC(=O)c2cc(OC)c(Nc3ncc(Cl)c(N[C@@H]4CCCC[C@H]4N(C)S(C)(=O)=O)n3)cc2Cl)CC1 [Example I-167] | 8.52
15 | COc1cc(C(=O)NC2CCN(C)CC2)ccc1Nc1ncc(C(F)(F)F)c(N[C@@H]2CCCC[C@H]2NC(=O)CN(C)C)n1 [Example I-17] | 7.82
16 | COCC(=O)N[C@@H]1CCCC[C@H]1Nc1nc(Nc2ccc(C(=O)NC3CCN(C)CC3)cc2OC)ncc1C(F)(F)F [Example I-21] | 8.40
17 | COCCNC(=O)c1ccc(Nc2ncc(Cl)c(N[C@@H]3CCCC[C@H]3NC(C)=O)n2)c(OC)c1 [Example I-65] | 8.52
18 | COc1cc(C(=O)NC2CCN(C)CC2)ccc1Nc1ncc(C(F)(F)F)c(N[C@@H]2CCCC[C@H]2NC(=O)C2CCCC2)n1 [Example I-22] | 7.82
19 | COc1cc(C(=O)NC2CCCN(C)C2)ccc1Nc1ncc(C(F)(F)F)c(N[C@H]2CCCC[C@@H]2NC(C)=O)n1 (stereo partly drawn) [Example I-37] | 6.40
20 | COc1cc(C(=O)NC2CCN(C)CC2)ccc1Nc1ncc(C(F)(F)F)c(N[C@@H]2CCCC[C@H]2N(CC2CC2)C(C)=O)n1 [Example I-103] | 8.15
21 | COc1cc(C(=O)NC2CCN(C)CC2)ccc1Nc1ncc(C(F)(F)F)c(N[C@@H]2CCCC[C@H]2NC(=O)NC(C)(C)C)n1 [Example I-18] | 7.34

Other lines, results leading:

Row | pIC50 | Structure (SMILES)
22 | 8.52 | COc1cc(C(=O)NC2CCN(C)CC2)ccc1Nc1ncc(C(F)(F)F)c(N[C@@H]2CCCC[C@H]2NC(=O)C(C)C)n1 [Example I-12]
23 | 9.00 | COc1cc(C(=O)NC2CCN(C)CC2)c(F)cc1Nc1ncc(C(F)(F)F)c(N[C@@H]2CCCC[C@H]2NS(C)(=O)=O)n1 [Example I-141]
24 | 9.00 | COc1cc(CN2CCOCC2)ccc1Nc1ncc(C(F)(F)F)c(N[C@@H]2CCCC[C@H]2NC(C)=O)n1 [Example I-115]
25 | 9.01 | COc1cc(C(=O)NC2CCN(C)CC2)ccc1Nc1ncc(C(F)(F)F)c(N[C@@H]2CCCC[C@H]2N(C)C(C)=O)n1 [Example I-82]
26 | 8.70 | COc1cc(C(=O)NCCN(C)C)c(Cl)cc1Nc1ncc(Cl)c(N[C@@H]2CCCC[C@H]2N(C)S(C)(=O)=O)n1 [Example I-171]
27 | 8.52 | COc1cc(C(=O)NC(C)C)ccc1Nc1ncc(C(F)(F)F)c(N[C@@H]2CCCC[C@H]2NC(C)=O)n1 [Example I-2, 4-[4-(2-acetylamino-cyclohexylamino)-5-trifluoromethyl-pyrimidin-2-ylamino]-N-isopropyl-3-methoxy-benzamide]
28 | 8.70 | COc1cc(C(=O)NC2CCCN(C)C2)c(F)cc1Nc1ncc(C(F)(F)F)c(N[C@@H]2CCCC[C@H]2NC(C)=O)n1 (stereo partly drawn) [Example I-88]
29 | 8.52 | CCC(=O)N(C)[C@@H]1CCCC[C@H]1Nc1nc(Nc2ccc(C(=O)NC3CCN(C)CC3)cc2OC)ncc1C(F)(F)F [Example I-81]
30 | 8.52 | CCNC(=O)c1ccc(Nc2ncc(C(F)(F)F)c(N[C@@H]3CCCC[C@H]3NC(C)=O)n2)c(OC)c1 [Example I-7]
31 | 8.70 | COc1cc(Nc2ncc(C(F)(F)F)c(N[C@@H]3CCCC[C@H]3N(C)S(C)(=O)=O)n2)ccc1NC(C)=O [Example I-177]
32 | 8.52 | CCNC(=O)c1ccc(Nc2ncc(Cl)c(N[C@@H]3CCCC[C@H]3NC(C)=O)n2)c(OC)c1 [Example I-58]
33 | 9.00 | COc1cc(C(=O)NC2CCC(N(C)C)CC2)ccc1Nc1ncc(C(F)(F)F)c(N[C@@H]2CCCC[C@H]2N(C)C(C)=O)n1 (stereo partly drawn) [Example I-108]
34 | 8.70 | CCN([C@@H]1CCCC[C@H]1Nc1nc(Nc2ccc(C(=O)NC3CCCN(C)C3)cc2OC)ncc1C(F)(F)F)S(C)(=O)=O (stereo partly drawn) [Example I-149]
35 | 9.00 | COc1cc(CN2CCCC2)ccc1Nc1ncc(C(F)(F)F)c(N[C@@H]2CCCC[C@H]2NC(C)=O)n1 [Example I-117]
36 | 8.52 | COc1cc(C(=O)NC2CCN(C)CC2)c(Cl)cc1Nc1ncc(Cl)c(N[C@@H]2CCCC[C@H]2N(C)S(C)(=O)=O)n1 [Example I-168]
37 | 8.70 | CNC(=O)c1ccc(Nc2ncc(C(F)(F)F)c(N[C@@H]3CCCC[C@H]3NC(C)=O)n2)c(OC)c1 [Example I-39]
38 | 9.00 | CCN1CCC(NC(=O)c2ccc(Nc3ncc(Cl)c(N[C@@H]4CCCC[C@H]4NC(C)=O)n3)c(OC)c2)CC1 [Example I-61]
39 | 9.00 | COc1cc(C(=O)NC2CCN(C)CC2)ccc1Nc1ncc(C(F)(F)F)c(N[C@@H]2CCCC[C@H]2NC(=O)C2CC2)n1 [Example I-20]
40 | 8.70 | CCS(=O)(=O)N(C)[C@@H]1CCCC[C@H]1Nc1nc(Nc2ccc(C(=O)NCCN(C)C)cc2OC)ncc1C(F)(F)F [Example I-156]
41 | 9.16 | COc1cc([C@@H](O)CO)ccc1Nc1ncc(C(F)(F)F)c(N[C@@H]2CCCC[C@H]2N(C)S(C)(=O)=O)n1 [Example I-157]
42 | 9.00 | CCN1CCC(NC(=O)c2ccc(Nc3ncc(Br)c(N[C@@H]4CCCC[C@H]4NC(C)=O)n3)c(OC)c2)CC1 [Example I-51]
43 | 8.70 | COc1cc(C(=O)NCCN(C)C)c(F)cc1Nc1ncc(Cl)c(N[C@@H]2CCC[C@H]2N(C)S(C)(=O)=O)n1 [Example I-170]
44 | 8.70 | CCNC(=O)c1ccc(Nc2ncc(Br)c(N[C@@H]3CCCC[C@H]3NC(C)=O)n2)c(OC)c1 [Example I-48]
45 | 8.70 | COc1cc(C(=O)NC2CCCN(C)C2)ccc1Nc1ncc(Cl)c(N[C@@H]2CCCC[C@H]2N(C)S(C)(=O)=O)n1 (stereo partly drawn) [Example I-163]
46 | 8.70 | COc1cc(C(=O)NC2CCN(C3CC3)CC2)ccc1Nc1ncc(Br)c(N[C@@H]2CCCC[C@H]2NC(C)=O)n1 [Example I-55]
47 | 8.70 | COc1cc(N2CCN(CC(=O)N(C)C)CC2)ccc1Nc1ncc(C(F)(F)F)c(N[C@@H]2CCCC[C@H]2N(C)S(C)(=O)=O)n1 [Example I-150]
48 | 9.00 | COc1cc(CN(C)C)ccc1Nc1ncc(C(F)(F)F)c(N[C@@H]2CCCC[C@H]2NC(C)=O)n1 [Example I-118]
